The target of data set [1] is T1, Fructose-1,6-bisphosphatase 1 (Homo sapiens, UniProt P09467).
T1 sequence (P09467 whole entry): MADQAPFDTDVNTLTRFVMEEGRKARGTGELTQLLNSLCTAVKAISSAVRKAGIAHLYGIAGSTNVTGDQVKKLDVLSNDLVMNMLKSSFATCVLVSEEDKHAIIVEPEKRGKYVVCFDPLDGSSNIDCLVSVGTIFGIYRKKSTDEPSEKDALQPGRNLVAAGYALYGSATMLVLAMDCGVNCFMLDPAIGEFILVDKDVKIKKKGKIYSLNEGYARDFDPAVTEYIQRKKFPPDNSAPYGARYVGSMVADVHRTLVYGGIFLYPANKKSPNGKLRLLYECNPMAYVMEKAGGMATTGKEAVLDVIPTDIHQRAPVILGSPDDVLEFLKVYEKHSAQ
Kind of data set: Inhibition of human liver FBPase expressed in Escherichia coli by spectrophotometry.

Data set [2] relates to Rattus norvegicus. Put plainly: Oral bioavailability in fasted Sprague-Dawley rat assessed as urinary excretion of phosphonic acid up to 300 mg/kg. The class given is ADME, organism-based, Urine. To be noted: in vivo.
Data set [3] has as its target T2, Fructose-1,6-bisphosphatase 1 (Homo sapiens) (UniProt P09467).
T2 sequence (whole entry): T1 sequence (P09467 whole entry)
Description: Displacement of [3H]AMP from human liver FBPase

In data set [4] the test system is Hepatocyte. Put plainly: Inhibition of glucose production in rat primary hepatocytes treated for 15 to 30 mins prior to gluconeogenic substrate dihydroxyacetone addition. The data set is classed as functional, cell-based.
Data set [5] has as its target T3, Fructose-1,6-bisphosphatase 1 (Rattus norvegicus, UniProt P19112).
T3 sequence (P19112 whole entry): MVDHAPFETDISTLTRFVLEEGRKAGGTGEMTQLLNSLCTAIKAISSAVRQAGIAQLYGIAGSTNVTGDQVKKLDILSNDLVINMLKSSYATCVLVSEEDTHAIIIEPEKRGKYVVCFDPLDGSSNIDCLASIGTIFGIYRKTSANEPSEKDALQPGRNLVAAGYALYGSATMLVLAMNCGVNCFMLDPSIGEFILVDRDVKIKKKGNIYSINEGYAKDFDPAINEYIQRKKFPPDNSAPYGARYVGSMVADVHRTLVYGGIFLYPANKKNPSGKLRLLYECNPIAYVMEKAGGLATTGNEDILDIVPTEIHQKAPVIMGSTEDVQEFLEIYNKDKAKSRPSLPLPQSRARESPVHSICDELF
Kind of data set: Inhibition of rat liver FBPase.

Data set [6] is described as follows: Inhibition of pig heart AMP deaminase. More on the design: species or system Sus scrofa.
The nature of data set [7]: Inhibition of New Zealand white rabbit liver phosphofructokinase. More on the design: species or system Oryctolagus cuniculus.
The target in data set [8] is Adenosine kinase (Homo sapiens, UniProt P55263). Kind of data set: Inhibition of human recombinant adenosine kinase expressed in Escherichia coli.
Sequence of Adenosine kinase (P55263 whole entry): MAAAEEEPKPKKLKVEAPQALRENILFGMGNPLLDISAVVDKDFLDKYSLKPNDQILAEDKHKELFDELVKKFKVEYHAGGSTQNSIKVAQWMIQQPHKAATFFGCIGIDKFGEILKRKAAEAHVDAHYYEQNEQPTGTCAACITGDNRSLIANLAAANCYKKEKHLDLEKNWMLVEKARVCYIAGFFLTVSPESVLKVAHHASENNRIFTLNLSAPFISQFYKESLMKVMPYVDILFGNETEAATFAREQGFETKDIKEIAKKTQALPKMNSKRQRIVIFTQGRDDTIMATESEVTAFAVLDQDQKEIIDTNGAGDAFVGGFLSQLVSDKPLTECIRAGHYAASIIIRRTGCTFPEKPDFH

pEC50, pIC50: −log10 of the molar value.

`Nc1ncnc2c1nc(-c1ccc(P(=O)(O)O)o1)n2CC(c1ccccc1)c1ccccc1` had a negative-log IC50 (pIC50) in data set [1] of 4.15. On to `CC(C)(C)Cn1c(-c2ccc(P(=O)(OCOC(=O)C(C)(C)C)OCOC(=O)C(C)(C)C)o2)nc2c(N)ncnc21`, for which the F in data set [2] is recorded as 5.3%. For `NC(=O)c1ncn([C@@H]2O[C@H](COP(=O)(O)O)[C@@H](O)[C@H]2O)c1N`, the ED50 in data set [3] came to 250 µM. Moreover, the pIC50 in data set [1] was 4.92.

As for `CC(Cc1nc2c(N)ncnc2n1CCc1ccccc1)[PH](=O)O` (stereo not drawn), the pIC50 in data set [1] is < 3.00.

Take `Nc1ncnc2c1nc(CCC(=O)O)n2[C@@H]1O[C@H](CO)[C@@H](O)[C@H]1O`: the pIC50 in data set [1] is < 4.00. The same measure, in the same setting: with `Nc1ncnc2c1nc(NCP(=O)(O)O)n2[C@@H]1O[C@H](CO)[C@@H](O)[C@H]1O` the figure was < 4.00; with `Nc1ncnc2c1nc(NCCP(=O)(O)O)n2Cc1ccc2ccccc2c1`, 4.46; with `Nc1ncnc2c1nc(/C=C/C(=O)O)n2[C@@H]1O[C@H](CO)[C@@H](O)[C@H]1O`, < 4.00. Consider `CNc1ncnc2c1nc(-c1ccc(P(=O)(O)O)o1)n2CCc1ccccc1`, for which the pIC50 in data set [1] is 4.30. In the case of `Nc1ncnc2c1nc(SCCP(=O)(O)O)n2CCc1ccccc1`, the pIC50 in data set [1] is 3.84. On the same count and under the same terms, with `Nc1ncnc2[nH]c(NCCP(=O)(O)O)nc12` the figure was < 4.00.

Regarding `Cn1c(-c2nc3c(N)ncnc3n2CC(C)(C)C)ccc1P(=O)(O)O`, in data set [1], the negative-log IC50 (pIC50) is < 5.00.

`Nc1ncnc2c1nc(NCCCP(=O)(O)O)n2[C@@H]1O[C@H](CO)[C@@H](O)[C@H]1O`: the pIC50 in data set [1] was < 4.00. In data set [4], `CC(C)(CO)Cn1c(-c2ccc(P(=O)(O)O)o2)nc2c(N)ncnc21` gave a pEC50 of 4.30. In addition, the pIC50 in data set [5] was < 4.70. In data set [4], `COc1cc2c(c(OC)c1OC)C(=O)OC2OP(=O)(OC1OC(=O)c2c1cc(OC)c(OC)c2OC)c1ccc(-c2nc3c(N)ncnc3n2CCc2ccccc2)o1` (stereo not drawn) had a pEC50 of 4.12. `CSc1nc(N)c2nc(-c3ccc(P(=O)(O)O)o3)n(CC(C)(C)C)c2n1` had a pEC50 in data set [4] of 5.07. Also, the pIC50 was 5.40 in data set [5] and 5.96 in data set [1]. `Nc1ncnc2c1nc(-c1ccc(P3(=O)OCCSSCCO3)o1)n2CCc1ccccc1`: the pEC50 in data set [4] was 3.60.

Take `Nc1ncnc2c1nc(-c1ccc(P(=O)(O)O)o1)n2C1CCCC1`: the pEC50 in data set [4] is 4.62. Also, in data set [5], the pIC50 is < 4.70.

On to `Nc1ncnc2c1nc(COCP(=O)(O)O)n2CCc1ccccc1`, for which the pIC50 in data set [1] was 4.64. Take `CC(=O)OC1CCCC(OP(=O)(OC2CCCC(OC(C)=O)C2)c2ccc(-c3nc4c(N)ncnc4n3CCc3ccccc3)o2)C1` (stereo not drawn): the pEC50 in data set [4] is 3.40.

Turning to `CC(C)C(=O)OCOP(=O)(OCOC(=O)C(C)C)c1ccc(-c2nc3c(N)ncnc3n2CCc2ccccc2)o1`, the pEC50 in data set [4] is 4.60.

Regarding `Nc1ncnc2c1nc(CCC[PH](=O)O)n2CCc1ccccc1`, the pIC50 in data set [1] was < 3.00. Take `Nc1ncnc2c1nc(-c1ccc(P(=O)(O)O)o1)n2CCc1ccccc1`: the pIC50 in data set [6] is 5.17; in data set [5], 4.40; in data set [8], < 4.00. Besides, the pEC50 in data set [7] is < 3.70; in data set [4], 5.30. In addition, the F in data set [2] was < 5%.

Regarding `CC(C)Cn1c(-c2ccc(P(=O)(O)O)o2)nc2c(N)nc(S(C)(=O)=O)nc21`, the pIC50 in data set [1] was 4.55. For `Nc1ncnc2c1nc(-c1ccc(P(=O)(OCCSSCCO)OCCSSCCO)o1)n2CCc1ccccc1`, the pEC50 in data set [4] was < 3.30. With `Nc1ncnc2c1nc(NCCP(=O)(O)O)n2CCc1ccccc1`, in data set [1], the pIC50 is 4.00.

For `Nc1ncnc2c1nc(NCCP(=O)(O)O)n2Cc1ccccc1`, the pIC50 in data set [1] is 4.04. On the same count and under the same terms, under `Nc1ncnc2c1nc(S(=O)(=O)CCP(=O)(O)O)n2CCc1ccccc1` stands < 3.00; under `Nc1ncnc2c1nc(CNCP(=O)(O)O)n2CCc1ccccc1`, < 3.30.

Turning to `CSc1nc(N)c2nc(-c3ccc(P(=O)(O)O)o3)n(CC(C)C)c2n1`, in data set [4], the pEC50 is < 4.60. The pIC50 in data set [5] was < 4.70. For `CN(C)CC(C)(C)Cn1c(-c2ccc(P(=O)(O)O)o2)nc2c(N)ncnc21`, the pIC50 in data set [1] is < 5.00. In the case of `CC(C)(C)Cn1c(-c2coc(P(=O)(O)O)c2)nc2c(N)ncnc21`, the pIC50 in data set [1] is < 5.00. `CC(C)(C)CCn1c(-c2ccc(P(=O)(O)O)o2)nc2c(N)ncnc21`: the pIC50 in data set [1] was 5.80. On the same count and under the same terms, with `C[C@H]1O[C@@H](n2c(NCCP(=O)(O)O)nc3c(N)ncnc32)[C@H](O)[C@@H]1O` the figure was 4.00; with `O=P(O)(O)c1ccc(-c2nc3c(Cl)ncnc3n2CCc2ccccc2)o1`, 4.30; with `CC(C)(C)Cn1c(Cn2ccnc2P(=O)(O)O)nc2c(N)ncnc21`, < 4.00. The same measure, in the same setting: under `Nc1ncnc2c1nc(-c1ccc(P(=O)(O)O)o1)n2C1CC1` stands 5.82; under `Nc1ncnc2c1nc(/C=C/CP(=O)(O)O)n2CCc1ccccc1`, 4.00. For `CC(C)(CCl)Cn1c(-c2ccc(P(=O)(O)O)o2)nc2c(N)ncnc21`, the negative-log EC50 (pEC50) in data set [4] is 5.12. Further, the pIC50 in data set [5] was < 5.70.

For `Nc1ncnc2c1nc(NCC(=O)O)n2[C@@H]1O[C@H](CO)[C@@H](O)[C@H]1O`, the negative logarithm of the IC50 (pIC50) in data set [1] is < 4.00. Still for that read-out and setting: with `Nc1ncnc2c1nc(NCCC(=O)O)n2[C@@H]1O[C@H](CO)[C@@H](O)[C@H]1O` the figure was < 4.00. For `CC(C)Cn1c(-c2ccc(P(=O)(O)O)o2)nc2c(N)ncnc21`, in data set [4], the pEC50 was 4.74. The figures for the pIC50 in data set [5] and in data set [1] were 5.15 and 5.82, respectively. Take `Nc1ncnc2c1nc(-c1ccc(S(=O)(=O)O)o1)n2CCc1ccccc1`: in data set [1], the pIC50 was 3.82. Still for that read-out and setting: with `Nc1ncnc2c1nc(NCCOP(=O)(O)O)n2[C@@H]1O[C@H](CO)[C@@H](O)[C@H]1O` the figure was 3.85; with `Nc1ncnc2c1nc(CCO[PH](=O)O)n2CCc1ccccc1`, < 3.00. In the case of `COc1ccc(COP(=O)(OCc2ccc(OC)c(C#N)c2)c2ccc(-c3nc4c(N)ncnc4n3CCc3ccccc3)o2)cc1C#N`, in data set [4], the pEC50 is < 4.00. Turning to `Cn1c(P(=O)(O)O)cnc1-c1nc2c(N)ncnc2n1CC(C)(C)C`, the pIC50 in data set [1] was < 5.00. In data set [3], `Nc1ncnc2c1nc(-c1ccc(P(=O)(O)O)o1)n2CCC1CCCCC1` had an ED50 of 35 µM. In data set [4], this compound had a pEC50 of 4.05. In data set [5], this compound gave a pIC50 of 4.70.

With `Nc1ncnc2c1nc(CCOP(=O)(O)O)n2CCc1ccccc1`, in data set [1], the pIC50 was 4.40.

Turning to `CC(n1c(-c2ccc(P(=O)(O)O)o2)nc2c(N)ncnc21)C(C)(C)C` (stereo not drawn), in data set [1], the pIC50 was 5.30. On the same count and under the same terms, with `CC(C)(C)Cn1c(-c2ccc(P(=O)(O)O)o2)nc2c(N)nc(N)nc21` the figure was 5.26; with `CN(C)c1ncnc2c1nc(-c1ccc(P(=O)(O)O)o1)n2CCc1ccccc1`, 3.60.

Turning to `Nc1ncnc2c1nc(-c1ccc(C(=O)O)o1)n2CCc1ccccc1`, in data set [1], the pIC50 was < 4.00. Same read-out and setting: with `Nc1ncnc2c1nc(-c1ccc(P(=O)(O)O)s1)n2CCc1ccccc1` the figure was 4.32. Still for that read-out and setting: with `Nc1ncnc2c1nc(C(=O)NCP(=O)(O)O)n2CCc1ccccc1` the figure was 4.00; with `Nc1ncnc2c1nc(CCCP(=O)(O)O)n2CCc1ccccc1`, 4.00; with `CCn1c(-c2ccc(P(=O)(O)O)o2)nc2c(N)ncnc21`, 5.74.

These data come from ChEMBL document CHEMBL1138458, “Fructose-1,6-bisphosphatase inhibitors. 1. Purine phosphonic acids as novel AMP mimics” (J Med Chem, 2009).
